According to patent publication US12295938B2, “Composition for treating castration-resistant prostate cancer, comprising quassinoids” (SAMSUNG LIFE PUBLIC WELFARE FOUNDATION, priority 2019, dated 2025):
Structures can show the parent of a compound that is named as a salt.

How the values were obtained:
[1] = tested on: AR-V7 transcriptional activity; assay: MMTV-LUC luciferase reporter assay in 22RV1 cells, DHT− (screening and IC50); assay type: cell-based; conditions: 22RV1 cells, no DHT, control = 100
Method: (§1) A library of antimalarial agents was screened using a luciferase reporter assay to measure changes in AR/AR-V7 transcriptional activity.
(§2) Screening was made primarily with 10 μM of each drug.

[2] = tested on: AR transcriptional activity; assay: MMTV-LUC luciferase reporter assay in 22RV1 cells, DHT+ (screening and IC50); assay type: cell-based; conditions: with DHT, control = 100
Method: as §1, §2

Compound | activity at 10 µM ([1]; Homo sapiens, 10 uM) [%] | activity at 10 µM ([2]; Homo sapiens, 10 uM) [%] | MMTV-LUC activity (%) DHT− ([1]; 10 uM) [%] | MMTV-LUC activity (%) DHT+ ([2]; 10 uM) [%] | further results
CC(=O)O[C@H](CC=C(C)C)C1=CC(=O)c2c(O)ccc(O)c2C1=O [Acetylshikonin] | 38.6 ± 3.2 | 17.7 ± 1.5 |  |  | activity at 1 µM ([1]; Homo sapiens, 1 uM): 103 ± 7.7%; activity at 1 µM ([2]; Homo sapiens, 1 uM): 113 ± 16.6%
C=C1[C@@H](O)[C@]2(O)OC[C@]34[C@H]2[C@@]2(C)[C@H](O)C(=O)C=C(C)[C@@H]2C[C@H]3OC(=O)[C@H](O)[C@@]14O [Eurycomanone] | 17.7 ± 2.7 | 6.7 ± 0.5 |  |  | activity at 0.1 µM ([1]; Homo sapiens, 0.1 uM): 128 ± 12%; activity at 1 µM ([1]; Homo sapiens, 1 uM): 59.1 ± 7.6%; activity at 0.1 µM ([2]; Homo sapiens, 0.1 uM): 108 ± 4.7%; activity at 1 µM ([2]; Homo sapiens, 1 uM): 51.3 ± 4.6%
COC(=O)[C@]12OC[C@]34[C@H]([C@@H](O)[C@@H]1O)[C@@]1(C)CC(=O)C(O[C@@H]5O[C@H](CO)[C@@H](O)[C@H](O)[C@H]5O)=C(C)[C@@H]1C[C@H]3OC(=O)[C@H](OC(C)=O)[C@@H]24 [Yadanzioside I] |  |  | 123.2 ± 10.4 | 136.0 ± 7.1 | 
COc1ncnc(NS(=O)(=O)c2ccc(N)cc2)c1OC [Sulfadoxine] | 116 ± 4.4 |  |  |  | 
CC1=CC(=O)[C@@H](O)[C@@]2(C)[C@H]1[C@@H](O)[C@H]1OC(=O)[C@H](O)[C@]3(O)[C@]14CO[C@]3(CO)[C@@H](O)[C@H](O)[C@H]24 [Yadanziolide B] |  |  | 8.2 ± 1.0 | 4.0 ± 0.5 | MMTV-LUC activity (%) DHT− ([1]; 0.1 uM): 23.1 ± 5.2%; MMTV-LUC activity (%) DHT− ([1]; 1 uM): 7.2 ± 0.8%; MMTV-LUC activity (%) DHT+ ([2]; 0.1 uM): 32.8 ± 9.0%; MMTV-LUC activity (%) DHT+ ([2]; 1 uM): 4.2 ± 0.4%
O=C1c2c(O)cccc2C([C@@H]2O[C@H](CO)[C@@H](O)[C@H](O)[C@H]2O)c2cc(CO)cc(O)c21 (stereo partly drawn) [Aloin A] |  |  | 108.3 ± 5.0 |  | 
O=C(Nc1ccc([N+](=O)[O-])cc1Cl)c1cc(Cl)ccc1O [Niclosamide] | 9.4 ± 0.6 |  |  |  | activity at 1 µM ([1]; Homo sapiens, 1 uM): 119 ± 10.8%
CC[C@](C)(O)C(=O)O[C@H]1C(=O)O[C@@H]2C[C@H]3C(C)=CC(=O)[C@@H](O)[C@]3(C)[C@H]3[C@@]4(O)OC[C@]32[C@@H]1[C@@H](C)[C@H]4O [(+)-Glaucarubinone] |  |  | 107.6 ± 26.5 | 117.7 ± 3.5 | 
O=C1c2cccc(O)c2C(=O)c2c(O)cccc21 [1,8-Dihydroxyanthraquinone] | 83.8 ± 2.9 |  |  |  | 
CC(=O)Oc1cccc2c1C(=O)c1c(OC(C)=O)cc(C(=O)O)cc1C2=O [1,8-Diacetoxy-3-carboxyanthraquinone] | 101 ± 8.7 | 98.5 ± 2.1 |  |  | 
COC(=O)[C@]12OC[C@]34[C@H]([C@@H](O)[C@@H]1O)[C@@]1(C)C=C(O[C@@H]5O[C@H](CO)[C@@H](O)[C@H](O)[C@H]5O)C(=O)[C@@H](C)[C@@H]1C[C@H]3OC(=O)[C@H](OC(=O)/C=C(\C)C(C)(C)O)[C@@H]24 [Yadanzioside C] |  |  | 110.4 ± 11.6 | 5.8 ± 0.7 | MMTV-LUC activity (%) DHT− ([1]; 1 uM): 118.9 ± 18.1%; MMTV-LUC activity (%) DHT+ ([2]; 1 uM): 55.6 ± 0.7%
COC(=O)[C@]12OC[C@@]34[C@@H](CC5=C(C)C(=O)C(O)=C[C@]5(C)[C@H]3[C@@H](O)[C@@H]1O)OC(=O)[C@H](OC(=O)CC(C)C)[C@@H]24 [Dehydrobruceine A] |  |  | 133.8 ± 14.5 | 164.2 ± 16.0 | 
Yadanziolide C |  |  | 6.0 ± 0.7 | 1.1 ± 0.1 | MMTV-LUC activity (%) DHT− ([1]; 0.1 uM): 80.5 ± 2.9%; MMTV-LUC activity (%) DHT− ([1]; 1 uM): 17.4 ± 3.1%; MMTV-LUC activity (%) DHT+ ([2]; 0.1 uM): 92.5 ± 0.9%; MMTV-LUC activity (%) DHT+ ([2]; 1 uM): 12.1 ± 2.0%
CCCCN(CCCC)CC(O)c1cc(Cl)cc2c1-c1ccc(Cl)cc1/C2=C/c1ccc(Cl)cc1 (stereo not drawn) [Lumefantrine] | 138 ± 9.5 |  |  |  | 
C=C1CC[C@@H]2[C@](C)(CO)[C@H](O)CC[C@@]2(C)[C@@H]1C/C=C1/C(=O)OC[C@H]1O [Andrographolide] | 157 ± 4.3 | 196 ± 5 |  |  | 
CC1=CC(=O)c2c(O)cccc2C1=O [Plumbagin] | 26 ± 7.6 | 7.1 ± 0.1 |  |  | activity at 1 µM ([1]; Homo sapiens, 1 uM): 215 ± 16.1%; activity at 1 µM ([2]; Homo sapiens, 1 uM): 143 ± 27.5%
Bruceanic acid C |  |  | 68.5 ± 6.3 | 85.8 ± 14.2 | 
O=C(O)c1cc(O)c2c(c1)[C@H]([C@H]1c3cc(C(=O)O)cc(O)c3C(=O)c3c(O[C@@H]4O[C@H](CO)[C@@H](O)[C@H](O)[C@H]4O)cccc31)c1cccc(O[C@@H]3O[C@H](CO)[C@@H](O)[C@H](O)[C@H]3O)c1C2=O [Sennoside A] |  |  | 105.5 ± 4.4 |  | 
C[C@H]1[C@H](OC(=O)CCC(=O)O)O[C@@H]2O[C@@]3(C)CC[C@H]4[C@H](C)CC[C@@H]1[C@@]24OO3 [Artesunate] | 107.6 ± 0.8 |  |  |  | 
CCN(CC)Cc1cc(Nc2ccnc3cc(Cl)ccc23)ccc1O [Amodiaquine dihydrochloride dihydrate] | 91.6 ± 2.9 | 102 ± 4.3 |  |  | 
COc1c(O)cc2c(c1O)C(=O)c1c(cc(C)c(O)c1OC)C2=O [Aurantio-obtusin] | 119 ± 27.4 | 124 ± 2.2 |  |  | 

Compound | activity at 10 µM ([1]; Homo sapiens, 10 uM) [%] | activity at 10 µM ([2]; Homo sapiens, 10 uM) [%] | MMTV-LUC activity (%) DHT− ([1]; 10 uM) [%] | MMTV-LUC activity (%) DHT+ ([2]; 10 uM) [%] | further results
C=CC(C)(C)c1cc(/C=C/C(=O)c2ccc(O)cc2)c(OC)cc1O [Licochalcone A] |  |  | 202.7 ± 7.1 | 235.6 ± 0.2 | 
CC1=CC(=O)[C@@H](O)[C@]2(C)[C@H]3[C@@H](O)[C@H](O)[C@]4(CO)OC[C@@]35[C@@H](C[C@@H]12)OC(=O)[C@H](O)[C@]54O [Yadanziolide A] |  |  | 8.0 ± 0.6 | 4.1 ± 0.2 | MMTV-LUC activity (%) DHT− ([1]; 1 uM): 54.1 ± 13.0%; MMTV-LUC activity (%) DHT+ ([2]; 1 uM): 58.3 ± 10.9%
CNC(=O)c1ccc(N2C(=S)N(c3ccc(C#N)c(C(F)(F)F)c3)C(=O)C2(C)C)cc1F [Enzalutamide] | 79.4 ± 34.6 |  |  |  | activity at 1 µM ([1]; Homo sapiens, 1 uM): 87.4 ± 11.3%
C[C@H]1[C@@H](O)O[C@@H]2O[C@@]3(C)CC[C@H]4[C@H](C)CC[C@@H]1[C@@]24OO3 [Dihydroartemisinin] | 115 ± 10.1 | 138 ± 7 |  |  | 
COC1=C[C@@H](C)[C@@H]2C[C@H]3OC(=O)C[C@H]4C(C)=C(OC)C(=O)[C@H]([C@@]2(C)C1=O)[C@@]34C [Quassin] | 110 ± 9 | 120 ± 5.6 |  |  | 
O=C(O)c1cc(O)c2c(c1)C(=O)c1cccc(O)c1C2=O [Rhein] | 83 ± 9.2 |  |  |  | 
CCN(CCO)CCCC(C)Nc1ccnc2cc(Cl)ccc12 (stereo not drawn) [Hydroxychloroquinesulfate] | 92.3 ± 2 |  |  |  | 
COC(=O)[C@]12OC[C@]34[C@H]([C@@H](O)[C@@H]1O)[C@@]1(C)CC(=O)C(O)=C(C)[C@@H]1C[C@H]3OC(=O)[C@H](OC(=O)/C=C(\C)C(C)(C)OC(C)=O)[C@@H]24 [Bruceantinol] | 81.2 ± 62.1 | 44.5 ± 2.1 |  |  | activity at 1 µM ([1]; Homo sapiens, 1 uM): 73.5 ± 11.9%; activity at 1 µM ([2]; Homo sapiens, 1 uM): 119 ± 21.8%
O=C(CCc1ccc(O)cc1)c1c(O)cc(O)cc1O[C@@H]1O[C@H](CO)[C@@H](O)[C@H](O)[C@H]1O [Phlorizin] | 154 ± 6.6 | 184 ± 12.6 |  |  | 
CC(C)=CC[C@H](OC(=O)C=C(C)C)C1=CC(=O)c2c(O)ccc(O)c2C1=O [β, β-Dimethylacrylalkannin] |  |  | 33.3 ± 3.2 | 19.9 ± 3.5 | MMTV-LUC activity (%) DHT− ([1]; 1 uM): 100.2 ± 11.4%; MMTV-LUC activity (%) DHT+ ([2]; 1 uM): 107.9 ± 7.0%
CC1CCCCCC(=O)c2c(O)cc(O)cc2CC(=O)O1 (stereo not drawn) [Curvularin] | 76.8 ± 3 | 91.6 ± 9.4 |  |  | 
CC1=CC(=O)[C@@H](O)[C@]2(C)[C@H]3[C@@H](O)[C@H](O)[C@]4(C)OC[C@@]35[C@@H](C[C@@H]12)OC(=O)[C@H](O)[C@]54O [Bruceine D] |  |  | 7.9 ± 1.3 | 1.1 ± 0.1 | MMTV-LUC activity (%) DHT− ([1]; 0.1 uM): 46.0 ± 6.4%; MMTV-LUC activity (%) DHT− ([1]; 1 uM): 7.0 ± 1.2%; MMTV-LUC activity (%) DHT+ ([2]; 0.1 uM): 32.6 ± 6.2%; MMTV-LUC activity (%) DHT+ ([2]; 1 uM): 2.0 ± 0.2%
C[C@@H]1CC[C@H]2[C@@H](C)C(=O)O[C@@H]3O[C@@]4(C)CC[C@@H]1[C@]32OO4 [Artemisinin] | 107 ± 4.3 | 156 ± 17.6 |  |  | 
COC(=O)[C@]12OC[C@]34[C@H]([C@@H](O)[C@@H]1O)[C@@]1(C)C=C(O[C@@H]5O[C@H](CO)[C@@H](O)[C@H](O)[C@H]5O)C(=O)[C@@H](C)[C@@H]1C[C@H]3OC(=O)[C@H](OC(C)=O)[C@@H]24 [Yadanzioside F] |  |  | 133.6 ± 21.7 | 139.5 ± 11.0 | 
CCc1nc(N)nc(N)c1-c1ccc(Cl)cc1 [Pyrimethamine] | 130.5 ± 0.2 |  |  |  | 
C[C@H]1COC2=C1C(=O)C(=O)c1c2ccc2c1CCCC2(C)C [Cryptotanshinone] | 70.3 ± 3.2 | 62.7 ± 15.3 |  |  | 
CO[C@H]1O[C@@H]2O[C@@]3(C)CC[C@H]4[C@H](C)CC[C@@H]([C@H]1C)[C@@]24OO3 [Artemether] | 97.5 ± 19.5 | 138 ± 8.8 |  |  | 
C[C@H](CC(=O)C[C@@H](C)[C@H]1C[C@H](O)[C@@]2(C)C3=C(C(=O)C[C@]12C)[C@@]1(C)CCC(=O)C(C)(C)[C@@H]1C[C@@H]3O)C(=O)O [Ganoderic acid A] |  |  | 140.0 ± 3.8 | 148.9 ± 2.8 | 
COC(=O)c1c2c(c3ccccc3c1O)OC(C)(C)C=C2 [Mollugin] | 94.7 ± 9.5 | 112 ± 11.1 |  |  | 
C=CCc1ccc(O)c(-c2cc(CC=C)ccc2O)c1 [Magnolol] | 130 ± 12 | 152 ± 8.6 |  |  | 
CC1CCCC=CC(=O)c2c(O)cc(O)cc2CC(=O)O1 (stereo not drawn) [10,11-Dehydrocurvularin] |  |  | 16.3 ± 2.5 | 5.5 ± 0.6 | MMTV-LUC activity (%) DHT− ([1]; 1 uM): 383.1 ± 24.6%; MMTV-LUC activity (%) DHT+ ([2]; 1 uM): 206.9 ± 15.0%
